Results reported in US9045445B2, “Glycine transporter-1 inhibitors, methods of making them, and uses thereof” (Albany Molecular Research, Inc., priority 2010, dated 2015).
Counter-ions that a name gives are not always drawn. Like-named read-outs stand apart in the source and are kept apart here.

Key:
[1] = biological target: T1, glycine transporter-1 (GlyT-1) (Homo sapiens, UniProt P48067); experiment: [14C]glycine uptake assay in JAR cells endogenously expressing GlyT-1 (scintillation proximity); format: cell-based; conditions: JAR cells, [14C]glycine 5 μM, 3 hour incubation; read-out: GlyT-1 IC50
T1 construct: JAR cells (ATCC#HTB-144), which endogenously express GlyT-1; host or cells: JAR human choriocarcinoma cells
T1 sequence (P48067 1-706): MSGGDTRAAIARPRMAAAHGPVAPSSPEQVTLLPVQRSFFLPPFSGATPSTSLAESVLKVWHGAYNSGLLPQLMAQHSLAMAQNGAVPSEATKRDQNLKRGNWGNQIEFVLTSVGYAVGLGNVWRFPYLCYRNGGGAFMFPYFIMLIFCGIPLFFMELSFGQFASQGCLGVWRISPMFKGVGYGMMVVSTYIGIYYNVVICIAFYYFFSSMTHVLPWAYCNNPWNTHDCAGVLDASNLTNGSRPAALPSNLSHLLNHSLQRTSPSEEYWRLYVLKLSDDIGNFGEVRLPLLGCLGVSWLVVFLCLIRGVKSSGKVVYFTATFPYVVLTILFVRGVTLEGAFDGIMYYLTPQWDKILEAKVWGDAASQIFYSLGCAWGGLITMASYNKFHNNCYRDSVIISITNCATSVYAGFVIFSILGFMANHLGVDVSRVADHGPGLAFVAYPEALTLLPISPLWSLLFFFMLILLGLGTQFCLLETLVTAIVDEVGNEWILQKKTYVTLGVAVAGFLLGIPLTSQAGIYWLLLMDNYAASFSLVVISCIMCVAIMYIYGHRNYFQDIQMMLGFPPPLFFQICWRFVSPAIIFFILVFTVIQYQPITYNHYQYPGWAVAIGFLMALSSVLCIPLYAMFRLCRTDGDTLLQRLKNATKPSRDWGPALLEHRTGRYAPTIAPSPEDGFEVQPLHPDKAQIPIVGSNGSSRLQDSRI
Outline: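 IC50 comes from a four-parameter fit of nine-point, duplicate curves measuring inhibition of 5 μM [14C]glycine uptake, read by scintillation proximity after 3 h at 37 °C. Cells are human JAR, which express GlyT-1 endogenously, given 10 min compound pre-treatment in pH 7.4 buffer with 5 mM alanine and 0.75% DMSO.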

[2] = biological target: T2, glycine transporter-2 (GlyT-2) (Homo sapiens, UniProt Q9Y345); experiment: [14C]glycine uptake assay in HEK-GlyT-2 transfected cells; format: cell-based; conditions: HEK-GlyT-2 cells
T2 construct: expressed in transfected cells
T2 sequence (Q9Y345 1-797): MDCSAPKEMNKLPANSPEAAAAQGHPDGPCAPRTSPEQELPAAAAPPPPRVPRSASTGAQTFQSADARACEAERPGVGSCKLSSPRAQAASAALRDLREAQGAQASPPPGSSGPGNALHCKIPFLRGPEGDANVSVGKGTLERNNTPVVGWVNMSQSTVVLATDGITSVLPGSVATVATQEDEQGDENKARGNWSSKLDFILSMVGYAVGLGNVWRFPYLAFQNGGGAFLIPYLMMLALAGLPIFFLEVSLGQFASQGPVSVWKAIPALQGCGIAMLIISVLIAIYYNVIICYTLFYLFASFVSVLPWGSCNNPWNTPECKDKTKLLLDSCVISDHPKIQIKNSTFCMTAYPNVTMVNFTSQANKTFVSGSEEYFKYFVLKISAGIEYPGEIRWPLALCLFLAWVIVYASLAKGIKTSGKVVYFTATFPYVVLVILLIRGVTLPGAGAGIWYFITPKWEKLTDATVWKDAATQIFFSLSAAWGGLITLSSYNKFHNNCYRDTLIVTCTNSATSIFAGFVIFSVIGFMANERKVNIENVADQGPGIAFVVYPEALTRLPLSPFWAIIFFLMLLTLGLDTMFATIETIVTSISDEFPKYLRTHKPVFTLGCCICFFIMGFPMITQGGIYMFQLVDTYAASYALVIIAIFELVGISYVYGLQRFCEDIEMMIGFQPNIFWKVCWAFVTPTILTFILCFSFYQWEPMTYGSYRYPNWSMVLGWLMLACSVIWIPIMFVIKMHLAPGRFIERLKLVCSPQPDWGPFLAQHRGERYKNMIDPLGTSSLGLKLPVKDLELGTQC

[3] = test system: cerebrospinal fluid (CSF) glycine levels; experiment: CSF-glycine assay after oral administration; format: in vivo; conditions: rats; for change in vivo at 10 mg/kg / change in vivo at 30 mg/kg / change in vivo at 100 mg/kg: Rattus norvegicus, po, read-out: % CSF Glycine Increase versus Vehicle Control
Protocol: This study measured cerebrospinal fluid (CSF) glycine levels after oral administration of test compound. […] After the specified pretreatment time, the rats were euthanized by CO2 asphyxiation and a hypodermic needle was inserted into the cisterna magna to withdraw 50-100 μl of CSF. The CSF was diluted with deuterated-glycine as an internal standard glycine was quantified by LC/MS/MS.

[4] = 0.5 h, dose 10 mg/kg, pretreatment 30 mins
[5] = 0.5 h, dose 30 mg/kg, pretreatment 30 mins
[6] = 2 h, dose 10 mg/kg, pretreatment 120 mins
[7] = 2 h, dose 30 mg/kg, pretreatment 120 mins

Compound | IC50 [1] [nM] | IC50 [2] [nM] | change in vivo at 10 mg/kg [3, 4] [%] | change in vivo at 30 mg/kg [3, 5] [%] | change in vivo at 100 mg/kg ([3]; 0.5 h, pretreatment 30 mins) [%] | change in vivo at 10 mg/kg [3, 6] [%] | change in vivo at 30 mg/kg [3, 7] [%] | change in vivo at 100 mg/kg ([3]; 2 h, pretreatment 120 mins) [%] | % CSF Glycine Increase versus Vehicle Control ([3]; dose 10 mg/kg, pretreatment 120 mins) [%] | % CSF Glycine Increase versus Vehicle Control ([3]; dose 10 mg/kg, pretreatment 360 mins) [%] | % CSF Glycine Increase versus Vehicle Control ([3]; dose 30 mg/kg, pretreatment 120 mins) [%] | % CSF Glycine Increase versus Vehicle Control ([3]; dose 30 mg/kg, pretreatment 360 mins) [%] | change in vivo at 10 mg/kg ([3]; 6 h, dose 10 mg/kg, pretreatment 360 mins) [%] | change in vivo at 30 mg/kg ([3]; 6 h, dose 30 mg/kg, pretreatment 360 mins) [%]
Cn1cc(S(=O)(=O)N2CCN(C3(CNC(=O)c4c(F)cccc4F)CCC(F)(F)CC3)CC2)nn1 [compound 189, N-((4,4-Difluoro-1-(4-(1-melhyl-1H-1,2,3-triazol-4-ylsulfonyl)piperazin-1-yl)cyclohexyl)methyl)-2,6-difluorobenzamide Hydrochloride] | 5 | > 75000 | 158 | 219 | 281 | 203 | 270 | 288 |  |  |  |  |  | 
N-((4,4-Difluoro-1-(4- (propylsulfonyl)piperazin- 1-yl)cyclohexyl)methyl)- 2,4-bis(trifluoromethyl) benzamide Hydrochloride [compound 246] | 7 | > 75000 |  |  |  |  |  |  | 191 | 166 | 205 | 244 |  | 
CCCS(=O)(=O)N1CCN(C2(CNC(=O)c3ccc(C(F)(F)F)cc3Cl)CCC(F)(F)CC2)CC1 [compound 151, N-((4,4-Difluoro-1-(4-(propylsulfonyl)piperazin-1-yl)cyclohexyl)methyl)-2-chloro-4-(trifluoromethyl)benzamide Hydrochloride] | 17 | > 75000 | 209 | 221 | 204 | 169 | 249 | 238 |  |  |  |  |  | 
Cn1cnc(S(=O)(=O)N2CCN(C3(CNC(=O)c4c(F)cccc4F)CCC(F)(F)CC3)CC2)c1 [compound 163, N-((4,4-Difluoro-1-(4-(1-methyl-1H-imidazol-4-ylsulfonyl)piperazin-1-yl)cyclohexyl)methyl)-2,6-difluorobenzamide Hydrochloride] | 18 | 74900 | 123 | 202 | 280 | 132 | 215 | 221 |  |  |  |  |  | 
CCCS(=O)(=O)N1CCN(C2(CNC(=O)c3ccc(C(F)(F)F)cc3C(F)(F)F)CCOCC2)CC1 [compound 267, N-((4-(4-(propylsulfonyl)piperazin-1-yl)tetrahydro-2H-pyran-4-yl)methyl)-2,4-bis(trifluoromethyl) benzamide Hydrochloride] | 46 |  |  |  |  | 138 | 229 |  |  |  |  |  | 129 | 190
O=C(NCC1(N2CCN(S(=O)(=O)c3cn(C(F)F)nn3)CC2)CCC(F)(F)CC1)c1ccc(C(F)(F)F)cc1Cl [compound 236, 2-Chloro-N-((1-(4-(1-(difluoromethyl)-1H-1,2,3-triazol-4-ylsulfonyl)piperazin-1-yl)-4,4-difluorocyclohexyl)methyl)-4-(trifluoromethyl) benzamide Hydrochloride] | 41 | > 75000 |  |  |  |  |  |  |  |  |  |  |  | 
CCS(=O)(=O)N1CCN(C2(CNC(=O)c3c(C)cc(F)cc3OC)CCCCCC2)CC1 [compound 87, N-((1-(4-(Ethylsulfonyl)piperazin-1-yl)cycloheptyl)methyl)-4-fluoro-2-methoxy-6-methylbenzamide Hydrochloride] | 155 | > 75000 |  |  |  |  |  |  |  |  |  |  |  | 
CCCS(=O)(=O)N1CCN(C2(CNC(=O)c3c(OC)cc(F)cc3SC)CCC(F)(F)CC2)CC1 [compound 138, N-((4,4-Difluoro-1-(4-(propylsulfonyl)piperazin-1-yl)cyclohexyl)methyl)-4-fluoro-2-methoxy-6-(methylthio)benzamide Hydrochloride] | 25 | > 75000 |  |  |  |  |  |  |  |  |  |  |  | 
